“And” between values parts separate entries of the source, which are not always exact repeats. Identical values can stand only once. Toxic doses and inconclusive results are not listed. How the source made its calls: active means survival T/C of 150% or more; inactive means T/C below 125% in these data. Square brackets hold non-standard residues; d marks the D form. Peptide text beside a SMILES is read from it. Ac5c = NC1(C(=O)O)CCCC1
Tested on: BDF1 mice, L1210 leukemia sc, survival T/C
Assay: NCI In Vivo Anticancer Drug Screen. Data for tumor model L1210 Leukemia (subcutaneous) in B6D2F1 (BDF1) mice
Settings: higher = longer survival
How it was run: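 Transplantable tumor-bearing mice; survival or tumor size recorded; result = T/C, treated vs vehicle control.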

[1] = endpoint: median survival time, dose: 23.0 mg/kg/injection, schedule: Q01DX Z (sc), vehicle: saline
[2] = endpoint: median survival time, dose: 39.0 mg/kg/injection, schedule: Q01DX Z (sc), vehicle: saline
[3] = endpoint: median survival time, dose: 65.0 mg/kg/injection, schedule: Q01DX Z (sc), vehicle: saline
[4] = endpoint: median survival time, dose: 108.0 mg/kg/injection, schedule: Q01DX Z (sc), vehicle: saline
[5] = endpoint: median survival time, dose: 108.0 mg/kg/injection, schedule: Q01DX Z (sc), vehicle: methylcellulose (MC)
[6] = endpoint: median survival time, dose: 180.0 mg/kg/injection, schedule: Q01DX Z (sc), vehicle: methylcellulose (MC)
[7] = endpoint: median survival time, dose: 300.0 mg/kg/injection, schedule: Q01DX Z (sc), vehicle: methylcellulose (MC)
[8] = endpoint: median survival time, dose: 39.0 mg/kg/injection, schedule: Q01DX Z (sc), vehicle: methylcellulose (MC)
[9] = endpoint: median survival time, dose: 65.0 mg/kg/injection, schedule: Q01DX Z (sc), vehicle: methylcellulose (MC)

Measured: T/C

NCC(=O)NC1(C(=O)O)CCCC1 (H-Gly-[Ac5c]-OH)
inactive: endpoint: median survival time, dose: 55.0 mg/kg/injection, schedule: Q01DX Z (sc), vehicle: water 105 % of control | endpoint: median survival time, dose: 91.0 mg/kg/injection, schedule: Q01DX Z (sc), vehicle: water 105 % of control | endpoint: median survival time, dose: 152.0 mg/kg/injection, schedule: Q01DX Z (sc), vehicle: water 105 % of control
active: endpoint: median survival time, dose: 253.0 mg/kg/injection, schedule: Q01DX Z (sc), vehicle: water 157 % of control

CCOC(=O)C(N)Cc1ccc(N(CCCl)CCCl)cc1 (stereo unspecified)
inactive: [1] 110 % of control and 119 % of control | [2] 104 % of control and 110 % of control | [3] 100 % of control and 104 % of control | [4] 90 % of control

S=c1nc[nH]c2c1ncn2C1CCCO1 (stereo unspecified)
inactive: [5] 120 % of control | [6] 120 % of control | [7] 100 % of control

CCN(CC)CCNc1ccc(C)c2sc3ccccc3c(=O)c12 (tested in a mixture with another compound)
inactive: [8] 100 % of control | [9] 100 % of control | [5] 100 % of control | [6] 100 % of control | endpoint: median survival time, dose: 200.0 mg/kg/injection, schedule: Q01DX Z (sc), vehicle: methylcellulose (MC) 111 % of control

Nc1nc(=S)c2ncn(C3CC(O)C(CO)O3)c2[nH]1 (stereo unspecified)
active: endpoint: median survival time, dose: 9.0 mg/kg/injection, schedule: Q02DX005 (sc), vehicle: saline 160 % of control | endpoint: median survival time, dose: 12.5 mg/kg/injection, schedule: Q02DX005 (sc), vehicle: saline 177 % of control | endpoint: median survival time, dose: 18.0 mg/kg/injection, schedule: Q02DX005 (sc), vehicle: saline 162 % of control | endpoint: median survival time, dose: 25.0 mg/kg/injection, schedule: Q02DX005 (sc), vehicle: saline 177 % of control | endpoint: median survival time, dose: 37.0 mg/kg/injection, schedule: Q02DX005 (sc), vehicle: saline 152 % of control | endpoint: median survival time, dose: 50.0 mg/kg/injection, schedule: Q02DX005 (sc), vehicle: saline 177 % of control | endpoint: median survival time, dose: 100.0 mg/kg/injection, schedule: Q02DX005 (sc), vehicle: saline 150 % of control | endpoint: median survival time, dose: 400.0 mg/kg/injection, schedule: Q01DX009 (sc), vehicle: saline 155 % of control | endpoint: median survival time, dose: 600.0 mg/kg/injection, schedule: Q02DX005 (sc), vehicle: saline 158 % of control
inactive: endpoint: median survival time, dose: 50.0 mg/kg/injection, schedule: Q01DX009 (sc), vehicle: saline 100 % of control and 103 % of control | endpoint: median survival time, dose: 100.0 mg/kg/injection, schedule: Q01DX009 (sc), vehicle: saline 105 % of control and 108 % of control | endpoint: median survival time, dose: 150.0 mg/kg/injection, schedule: Q02DX005 (sc), vehicle: saline 120 % of control | endpoint: median survival time, dose: 200.0 mg/kg/injection, schedule: Q01DX009 (sc), vehicle: saline 122 % of control

COc1cccc2c1C(=O)c1c(O)c3c(c(O)c1C2=O)CC(O)(C(C)=O)CC3OC1CC(N)C(O)C(C)O1 (stereo unspecified)
inactive: endpoint: median survival time, dose: 11.7 mg/kg/injection, schedule: Q04DX003 (ip), vehicle: saline 90 % of control | endpoint: median survival time, dose: 23.4 mg/kg/injection, schedule: Q04DX003 (ip), vehicle: saline 94 % of control | endpoint: median survival time, dose: 46.8 mg/kg/injection, schedule: Q04DX003 (ip), vehicle: saline 91 % of control | endpoint: median survival time, dose: 93.6 mg/kg/injection, schedule: Q04DX003 (ip), vehicle: saline 91 % of control | endpoint: median survival time, dose: 187.2 mg/kg/injection, schedule: Q04DX003 (ip), vehicle: saline 90 % of control

COc1cc([C@@H]2c3cc4c(cc3[C@H](OC(=O)CCCC(=O)O)[C@H]3COC(=O)[C@H]23)OCO4)cc(OC)c1OC
inactive: endpoint: median survival time, dose: 5.0 mg/kg/injection, schedule: Q01DX Z (sc), vehicle: water 100 % of control | endpoint: median survival time, dose: 8.4 mg/kg/injection, schedule: Q01DX Z (sc), vehicle: water 109 % of control | endpoint: median survival time, dose: 14.0 mg/kg/injection, schedule: Q01DX Z (sc), vehicle: water 113 % of control | endpoint: median survival time, dose: 23.0 mg/kg/injection, schedule: Q01DX Z (sc), vehicle: water 113 % of control | endpoint: median survival time, dose: 39.0 mg/kg/injection, schedule: Q01DX Z (sc), vehicle: water 118 % of control | endpoint: median survival time, dose: 65.0 mg/kg/injection, schedule: Q01DX Z (sc), vehicle: water 118 % of control | endpoint: median survival time, dose: 108.0 mg/kg/injection, schedule: Q01DX Z (sc), vehicle: water 118 % of control

[N-]=[N+]=CC(=O)NCC(=O)NN
inactive: [3] 90 % of control | [4] 100 % of control | endpoint: median survival time, dose: 180.0 mg/kg/injection, schedule: Q01DX Z (sc), vehicle: saline 100 % of control | endpoint: median survival time, dose: 300.0 mg/kg/injection, schedule: Q01DX Z (sc), vehicle: saline 100 % of control | endpoint: median survival time, dose: 500.0 mg/kg/injection, schedule: Q01DX Z (sc), vehicle: saline 100 % of control | endpoint: median survival time, dose: 833.0 mg/kg/injection, schedule: Q01DX Z (sc), vehicle: saline 107 % of control

CCN(CC)P(=O)(N1CC1)N1CC1
inactive: endpoint: median survival time, dose: 1.08 mg/kg/injection, schedule: Q01DX Z (sc), vehicle: saline 100 % of control | endpoint: median survival time, dose: 1.8 mg/kg/injection, schedule: Q01DX Z (sc), vehicle: saline 100 % of control | endpoint: median survival time, dose: 3.0 mg/kg/injection, schedule: Q01DX Z (sc), vehicle: saline 110 % of control | endpoint: median survival time, dose: 5.0 mg/kg/injection, schedule: Q01DX Z (sc), vehicle: saline 115 % of control | [2] 111 % of control | [3] 111 % of control | [4] 100 % of control
active: endpoint: median survival time, dose: 8.4 mg/kg/injection, schedule: Q01DX Z (sc), vehicle: saline 170 % of control and 194 % of control | endpoint: median survival time, dose: 14.0 mg/kg/injection, schedule: Q01DX Z (sc), vehicle: saline 150 % of control and 183 % of control | [1] 155 % of control

CN=C(NC)c1ccc(NC(=O)c2ccc(C(=O)Nc3ccc(C(=NC)NC)cc3)c(Cl)c2)cc1
inactive: [8] 100 % of control | [9] 100 % of control | [5] 100 % of control | [6] 105 % of control | [7] 100 % of control

COc1ccc2cc1Oc1ccc(cc1)C[C@H]1c3cc(c(OC)cc3CCN1C)Oc1c(OC)c(OC)cc3c1[C@H](C2)N(C)CC3
inactive: endpoint: median survival time, dose: 37.5 mg/kg/injection, schedule: Q01DX009 (sc), vehicle: methylcellulose (MC) 90 % of control | endpoint: median survival time, dose: 37.5 mg/kg/injection, schedule: Q01DX009 (sc), vehicle: other 90 % of control | endpoint: median survival time, dose: 39.0 mg/kg/injection, schedule: Q01DX009 (sc), vehicle: other 100 % of control and 103 % of control | endpoint: median survival time, dose: 65.0 mg/kg/injection, schedule: Q01DX009 (sc), vehicle: other 100 % of control and 103 % of control | endpoint: median survival time, dose: 75.0 mg/kg/injection, schedule: Q01DX009 (sc), vehicle: methylcellulose (MC) 90 % of control | endpoint: median survival time, dose: 75.0 mg/kg/injection, schedule: Q01DX009 (sc), vehicle: other 92 % of control | endpoint: median survival time, dose: 108.0 mg/kg/injection, schedule: Q01DX009 (sc), vehicle: other 94 % of control and 95 % of control | endpoint: median survival time, dose: 150.0 mg/kg/injection, schedule: Q01DX009 (sc), vehicle: methylcellulose (MC) 95 % of control | endpoint: median survival time, dose: 150.0 mg/kg/injection, schedule: Q01DX009 (sc), vehicle: other 96 % of control | endpoint: median survival time, dose: 180.0 mg/kg/injection, schedule: Q01DX009 (sc), vehicle: other 97 % of control and 100 % of control | endpoint: median survival time, dose: 300.0 mg/kg/injection, schedule: Q01DX009 (sc), vehicle: other 88 % of control and 91 % of control and 82 % of control | endpoint: median survival time, dose: 600.0 mg/kg/injection, schedule: Q01DX009 (sc), vehicle: other 70 % of control

Cc1cccc2c(Nc3ccc(NS(C)(=O)=O)cc3)c3ccccc3nc12
inactive: endpoint: mean survival time, dose: 10.0 mg/kg/injection, schedule: Q01DX009 (ip), vehicle: saline 103 % of control | endpoint: mean survival time, dose: 20.0 mg/kg/injection, schedule: Q01DX009 (ip), vehicle: saline 107 % of control | endpoint: mean survival time, dose: 40.0 mg/kg/injection, schedule: Q01DX009 (ip), vehicle: saline 106 % of control | endpoint: mean survival time, dose: 80.0 mg/kg/injection, schedule: Q01DX009 (ip), vehicle: saline 100 % of control | endpoint: median survival time, dose: 10.0 mg/kg/injection, schedule: Q01DX009 (ip), vehicle: saline with Tween-80 106 % of control | endpoint: median survival time, dose: 20.0 mg/kg/injection, schedule: Q01DX009 (ip), vehicle: saline with Tween-80 112 % of control

CN(C)c1ccc(/C=C2\C=Cc3ccccc32)cc1
inactive: endpoint: median survival time, dose: 180.0 mg/kg/injection, schedule: Q01DX Z (sc), vehicle: carboxymethylcellulose (CMC) 100 % of control | endpoint: median survival time, dose: 300.0 mg/kg/injection, schedule: Q01DX Z (sc), vehicle: carboxymethylcellulose (CMC) 100 % of control | endpoint: median survival time, dose: 500.0 mg/kg/injection, schedule: Q01DX Z (sc), vehicle: carboxymethylcellulose (CMC) 105 % of control | endpoint: median survival time, dose: 833.0 mg/kg/injection, schedule: Q01DX Z (sc), vehicle: carboxymethylcellulose (CMC) 111 % of control

CC(C)NNC(=O)c1ccncc1
inactive: endpoint: median survival time, dose: 200.0 mg/kg/injection, schedule: Q01DX001 (sc), vehicle: saline 105 % of control and 106 % of control | endpoint: median survival time, dose: 400.0 mg/kg/injection, schedule: Q01DX001 (sc), vehicle: saline 100 % of control and 103 % of control

Reference: PubChem BioAssay AID250 (DTP/NCI, 2004)
